# Experimental data taken from US20080027088A1, “Imidazole-Based Hmg-Coa Reductase Inhibitors” (Warner-Lambert Company, LLC, priority 2004, published 2008).
# Key:
# Type in all cases: in vivo
# [1] = system: ApoE KO mice fed a Western diet; assay: Plasma total cholesterol and triglyceride, 12 weeks; details: 0.3 mg/kg/day
# Description: Animal experiments—Male C57BI/6J and ApoE KO mice on C57BI/6J background were obtained from the Jackson Laboratory (Bar Harbor, Me.) or Taconic (Germantown, N.Y.) (Plaque formation in ApoE KO mice is lipid-driven (A. S. Plump et al., Cell. 1992;71 (2):343-53)). Myriocin was mixed with Western diet containing 0.21% cholesterol and 21% fat. 8-12-week-old mice received 0.3 mg myriocin/kg/day for 12 weeks (Table 1). 10-12 week-old ApoE KO mice (n=8) were pre-fed a western diet for 2 weeks and mice received various concentrations of myriocin for 4 weeks in diet admix. Control groups consisted of ApoE KO mice fed normal chow or Western diet without myriocin, and normal chow-fed C57BI/6J mice. Body weight and chow feeding was measured every week to examine the food consumption. […]
# Plasma lipids and serum amyloid A measurement—Mice were sacrificed by CO2 inhalation and blood was collected through cardiac puncture. Plasma concentrations of total cholesterol and triglyceride were determined enzymatically on a Cobas Mira Plus auto-analyzer using Cholesterol R1 and Triglycerides Reagent methods, respectively (Roche Diagnostics, Indiana, USA). Colormetric changes were measured at 500 nm. […] Cholesterol distribution among lipoproteins was determined by in-line post column analysis (K. A. Kieft, T. M. Bocan and B. R. Krause, J. Lipid Res. 1991; 32:859-66). […]
# FIG. 7. […] Colormetric changes were measured at 500 nm. […]
# [2] = system: ApoE KO mice fed a Western diet; assay: Plasma lipoprotein cholesterol distribution by FPLC, 4 weeks; details: doses 0.1-1.0 mg/kg/day
# Description: Animal experiments—Male C57BI/6J and ApoE KO mice on C57BI/6J background were obtained from the Jackson Laboratory (Bar Harbor, Me.) or Taconic (Germantown, N.Y.) (Plaque formation in ApoE KO mice is lipid-driven (A. S. Plump et al., Cell. 1992;71 (2):343-53)). Myriocin was mixed with Western diet containing 0.21% cholesterol and 21% fat. 8-12-week-old mice received 0.3 mg myriocin/kg/day for 12 weeks (Table 1). 10-12 week-old ApoE KO mice (n=8) were pre-fed a western diet for 2 weeks and mice received various concentrations of myriocin for 4 weeks in diet admix. Control groups consisted of ApoE KO mice fed normal chow or Western diet without myriocin, and normal chow-fed C57BI/6J mice. Body weight and chow feeding was measured every week to examine the food consumption. For the femoral artery cuff model, 8-10 week-old male ApoE KO mice were anethetized and the right femoral artery was dissected from its surroundings. A nonconstrictive polyethylene cuff (Portex, 0.40-mm inner diameter, 0.80-mm outer diameter, and 1.5-mm length) was placed looselyaround the right femoral artery.
# Plasma lipids and serum amyloid A measurement—Mice were sacrificed by CO2 inhalation and blood was collected through cardiac puncture. Plasma concentrations of total cholesterol and triglyceride were determined enzymatically on a Cobas Mira Plus auto-analyzer using Cholesterol R1 and Triglycerides Reagent methods, respectively (Roche Diagnostics, Indiana, USA). Colormetric changes were measured at 500 nm. Lipoproteins were separated from mouse plasma by fast-protein liquid chromatography utilizing a Superose 6HR column. Cholesterol distribution among lipoproteins was determined by in-line post column analysis (K. A. Kieft, T. M. Bocan and B. R. Krause, J. Lipid Res. 1991; 32:859-66). Serum Amyloid A (SAA) protein in plasma was measured by ELISA according to the manufacturer's instructions (Biosource).
# FIG. 2. […] Cholesterol distribution among lipoproteins was determined by in-line post column analysis (Kieft, K. A., T. M. A. Bocan, B. R. Krause, J. Lipid Res. 1991, 32: 859-866). […]
# LCB1 and LCB2 mRNA = assay: SPT gene expression (LCB1, LCB2 mRNA) in liver by RT-PCR; details: 0.3 mg/kg/day diet admix, 12 weeks, Western diet-fed ApoE KO mice
# Description: SPT expression and activity—Total RNA was isolated from liver and aorta using Trizol (Invitrogen, Calif.). LCB1 and LCB2 mRNA levels were measured by real-time (RT) polymerase chain reaction (PCR) on ABI Prism 7900HT Sequence Detection System (Applied Biosystems, Foster City, Calif.). The following primers and probe sets were utilized: LCB1, forward primer, 5′-CCGCTCCTTCGTGGTTGA-3′: reverse primer, 5′-[…]-3′: probe, 5′FAM-[…]-3′; LCB2, forward primer, 5′-[…]-3′, reverse primer, 5′-CCTCAGGATCCAGGCCM-3′, probe, 5′FAM-[…]-3′. The optimum number of cycles was set for each gene product with uniform amplification. Each mRNA level was expressed as a ratio to 18s ribosomal RND or as a ratio to GAPDH RNA.
# FIGS. 1-A, 1-B, 1-C, 1-D and 1-E. SPT gene expression and enzyme activity. Mice were treated with 0.3 mg/kg/day myriocin for 12 weeks by mixing with Western diet chow. Liver was isolated and total mRNA and cell-free homogenate were prepared. SPT mRNA expression was quantified by quantitative RT-PCR. Expression was described as a ratio of LCB1 (A) or LCB2 (B) mRNA to 18s RNA or to rodent GAPDH RNA (n=5, P>0.05). SPT activity of cell-free homogenate (C) was measured with ^14C-labeled Serine and palmitoyl-coenzyme A as substrates and analyzed by TLC. Relative amounts of 3-ketosphinganine were determined by densitometry scanning. The values reported are mean±SEM (n=3, *P<0.05).
compound,measurement,setting,value
CCCCCCC(=O)CCCCCC/C=C/C[C@@H](O)[C@H](O)[C@@](N)(CO)C(=O)O [myriocin],plasma TG lowered,[1],45%
same,plasma cholesterol lowered,[1],41%
same,HDL-cholesterol raised,[2],2.1 fold
same,"LDL-cholesterol lowered, at maximum",[2],63%
same,"VLDL-cholesterol lowered, at maximum",[2],83%
same,effect on expression of LCB1 and LCB2 mRNA in the liver,LCB1 and LCB2 mRNA,no effect
